We go through 9 molecules from ChEMBL document CHEMBL5465560, “Selectivity Literature for EUbOPEN Chemogenomic Library” (2024).

For assay [1], the target named is T1, Dual specificity mitogen-activated protein kinase kinase 6 (Homo sapiens) (UniProt P52564).
T1 sequence (whole entry): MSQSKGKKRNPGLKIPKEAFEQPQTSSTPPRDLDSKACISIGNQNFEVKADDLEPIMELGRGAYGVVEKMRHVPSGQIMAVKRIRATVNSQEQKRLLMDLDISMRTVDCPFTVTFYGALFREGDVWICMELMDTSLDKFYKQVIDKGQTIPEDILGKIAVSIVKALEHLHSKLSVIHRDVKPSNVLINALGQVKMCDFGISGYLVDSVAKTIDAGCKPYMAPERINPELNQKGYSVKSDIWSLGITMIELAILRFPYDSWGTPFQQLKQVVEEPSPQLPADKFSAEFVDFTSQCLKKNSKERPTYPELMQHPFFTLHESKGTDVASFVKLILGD
Briefly: Selectivity interaction (KinomeScan (DiscoverX)) EUB0000229b MAP2K6. The conditions noted are these: at 10 µM.

In assay [2] the target is T2, Testis-specific serine/threonine-protein kinase 3 (Homo sapiens) (UniProt Q96PN8).
T2 sequence (whole entry): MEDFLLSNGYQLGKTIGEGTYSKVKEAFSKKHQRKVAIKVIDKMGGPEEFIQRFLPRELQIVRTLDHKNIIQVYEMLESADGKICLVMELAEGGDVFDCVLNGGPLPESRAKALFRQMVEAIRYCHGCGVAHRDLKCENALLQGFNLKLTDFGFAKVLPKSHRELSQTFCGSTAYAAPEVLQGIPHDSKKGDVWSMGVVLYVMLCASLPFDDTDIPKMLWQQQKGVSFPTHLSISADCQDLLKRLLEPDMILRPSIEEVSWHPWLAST
Briefly: Selectivity interaction (KinomeScan (DiscoverX)) EUB0000229b TSSK3. The conditions noted are these: at 10 µM.

Assay [3] has as its target Beta-2 adrenergic receptor (Homo sapiens, UniProt P07550). As to the kind of experiment: Selectivity interaction (Panel of kinases, GPCRs, ion channels and transporters (enzymatic assay)) EUB0000266bCl ADRB2.
Assay [4] concerns the target Tyrosine-protein kinase JAK1 (Homo sapiens, UniProt P23458). As to the kind of experiment: Selectivity interaction (ActivX KiNativ screen (kinase selectivity in THP-1 cell lysates)) EUB0000639a JAK1. The format is subcellular. The conditions noted are these: lysate, at 0.01 µM.
Assay [5] concerns the target TGF-beta receptor type-2 (Homo sapiens) (UniProt P37173). The conditions noted are these: at 10 µM.
Assay [6] concerns the target Serine/threonine-protein kinase MARK2 (Homo sapiens) (UniProt Q7KZI7). As to the kind of experiment: Selectivity interaction (Millipore kinase profiler) EUB0000124b MARK2. The conditions noted are these: at 10 µM.
The target of assay [7] is BDNF/NT-3 growth factors receptor (Homo sapiens) (UniProt Q16620). Briefly: Selectivity interaction (Millipore kinase profiler) EUB0000124b NTRK2. The settings on record: at 10 µM.
Assay [8] concerns the target T3, Ephrin type-A receptor 6 (Homo sapiens) (UniProt Q9UF33).
T3 sequence (whole entry): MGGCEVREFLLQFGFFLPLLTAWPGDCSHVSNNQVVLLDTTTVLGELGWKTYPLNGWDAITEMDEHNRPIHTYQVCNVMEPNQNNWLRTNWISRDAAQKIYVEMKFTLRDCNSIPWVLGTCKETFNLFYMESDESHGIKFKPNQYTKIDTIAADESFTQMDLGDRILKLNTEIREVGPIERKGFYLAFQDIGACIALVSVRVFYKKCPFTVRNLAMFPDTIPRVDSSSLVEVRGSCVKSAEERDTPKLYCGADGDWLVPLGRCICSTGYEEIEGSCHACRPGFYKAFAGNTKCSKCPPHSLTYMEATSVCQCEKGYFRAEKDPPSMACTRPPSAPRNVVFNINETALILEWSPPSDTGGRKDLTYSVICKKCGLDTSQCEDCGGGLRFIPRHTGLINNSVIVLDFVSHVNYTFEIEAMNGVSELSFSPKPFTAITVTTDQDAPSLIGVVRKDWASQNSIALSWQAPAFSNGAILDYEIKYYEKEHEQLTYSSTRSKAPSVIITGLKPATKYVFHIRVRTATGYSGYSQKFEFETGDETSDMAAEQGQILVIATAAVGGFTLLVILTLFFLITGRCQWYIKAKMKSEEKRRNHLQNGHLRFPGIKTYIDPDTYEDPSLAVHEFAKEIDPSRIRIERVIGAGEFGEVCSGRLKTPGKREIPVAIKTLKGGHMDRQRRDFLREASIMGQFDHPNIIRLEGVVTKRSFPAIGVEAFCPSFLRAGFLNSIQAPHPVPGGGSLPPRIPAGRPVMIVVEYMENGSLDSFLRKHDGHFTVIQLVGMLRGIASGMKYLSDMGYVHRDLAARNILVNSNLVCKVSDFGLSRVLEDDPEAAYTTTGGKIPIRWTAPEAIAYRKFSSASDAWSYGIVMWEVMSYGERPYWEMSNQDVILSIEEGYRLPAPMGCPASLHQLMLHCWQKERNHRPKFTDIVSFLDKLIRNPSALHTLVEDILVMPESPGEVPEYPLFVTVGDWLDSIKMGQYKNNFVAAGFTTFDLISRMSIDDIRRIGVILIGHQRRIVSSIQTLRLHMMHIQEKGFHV
Briefly: Selectivity interaction (KinomeScan (DiscoverX)) EUB0001049a EPHA6. The settings on record: at 1 µM.

Assay [9] deals with Serine/threonine-protein kinase 35 (Homo sapiens) (UniProt Q8TDR2). Briefly: Selectivity interaction (KinomeScan (DiscoverX)) EUB0001049a STK35. The conditions noted are these: at 1 µM.
Chain of Serine/threonine-protein kinase 35 (Homo sapiens) (Q8TDR2 whole entry): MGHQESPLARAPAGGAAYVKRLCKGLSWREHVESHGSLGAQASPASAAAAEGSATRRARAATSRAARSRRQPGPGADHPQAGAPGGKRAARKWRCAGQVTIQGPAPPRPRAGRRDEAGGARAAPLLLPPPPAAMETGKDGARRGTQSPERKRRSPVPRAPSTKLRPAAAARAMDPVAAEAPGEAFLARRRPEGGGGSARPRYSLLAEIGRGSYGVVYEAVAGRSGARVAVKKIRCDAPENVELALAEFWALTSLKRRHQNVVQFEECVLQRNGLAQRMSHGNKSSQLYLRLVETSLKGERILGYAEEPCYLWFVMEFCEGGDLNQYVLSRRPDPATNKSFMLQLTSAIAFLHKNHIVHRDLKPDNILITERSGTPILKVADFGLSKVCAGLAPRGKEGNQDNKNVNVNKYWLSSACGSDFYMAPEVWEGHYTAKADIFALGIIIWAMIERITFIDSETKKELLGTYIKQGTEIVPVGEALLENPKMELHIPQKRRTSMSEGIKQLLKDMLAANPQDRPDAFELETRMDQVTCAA
Assay [10] deals with Hepatocyte growth factor receptor (Homo sapiens), P08581 [Y1235D]. As to the kind of experiment: (§1) Selectivity interaction (KinomeScan (DiscoverX)) EUB0000045b MET.
Chain of Hepatocyte growth factor receptor (Homo sapiens), P08581 [Y1235D] (P08581 whole entry Y1235D): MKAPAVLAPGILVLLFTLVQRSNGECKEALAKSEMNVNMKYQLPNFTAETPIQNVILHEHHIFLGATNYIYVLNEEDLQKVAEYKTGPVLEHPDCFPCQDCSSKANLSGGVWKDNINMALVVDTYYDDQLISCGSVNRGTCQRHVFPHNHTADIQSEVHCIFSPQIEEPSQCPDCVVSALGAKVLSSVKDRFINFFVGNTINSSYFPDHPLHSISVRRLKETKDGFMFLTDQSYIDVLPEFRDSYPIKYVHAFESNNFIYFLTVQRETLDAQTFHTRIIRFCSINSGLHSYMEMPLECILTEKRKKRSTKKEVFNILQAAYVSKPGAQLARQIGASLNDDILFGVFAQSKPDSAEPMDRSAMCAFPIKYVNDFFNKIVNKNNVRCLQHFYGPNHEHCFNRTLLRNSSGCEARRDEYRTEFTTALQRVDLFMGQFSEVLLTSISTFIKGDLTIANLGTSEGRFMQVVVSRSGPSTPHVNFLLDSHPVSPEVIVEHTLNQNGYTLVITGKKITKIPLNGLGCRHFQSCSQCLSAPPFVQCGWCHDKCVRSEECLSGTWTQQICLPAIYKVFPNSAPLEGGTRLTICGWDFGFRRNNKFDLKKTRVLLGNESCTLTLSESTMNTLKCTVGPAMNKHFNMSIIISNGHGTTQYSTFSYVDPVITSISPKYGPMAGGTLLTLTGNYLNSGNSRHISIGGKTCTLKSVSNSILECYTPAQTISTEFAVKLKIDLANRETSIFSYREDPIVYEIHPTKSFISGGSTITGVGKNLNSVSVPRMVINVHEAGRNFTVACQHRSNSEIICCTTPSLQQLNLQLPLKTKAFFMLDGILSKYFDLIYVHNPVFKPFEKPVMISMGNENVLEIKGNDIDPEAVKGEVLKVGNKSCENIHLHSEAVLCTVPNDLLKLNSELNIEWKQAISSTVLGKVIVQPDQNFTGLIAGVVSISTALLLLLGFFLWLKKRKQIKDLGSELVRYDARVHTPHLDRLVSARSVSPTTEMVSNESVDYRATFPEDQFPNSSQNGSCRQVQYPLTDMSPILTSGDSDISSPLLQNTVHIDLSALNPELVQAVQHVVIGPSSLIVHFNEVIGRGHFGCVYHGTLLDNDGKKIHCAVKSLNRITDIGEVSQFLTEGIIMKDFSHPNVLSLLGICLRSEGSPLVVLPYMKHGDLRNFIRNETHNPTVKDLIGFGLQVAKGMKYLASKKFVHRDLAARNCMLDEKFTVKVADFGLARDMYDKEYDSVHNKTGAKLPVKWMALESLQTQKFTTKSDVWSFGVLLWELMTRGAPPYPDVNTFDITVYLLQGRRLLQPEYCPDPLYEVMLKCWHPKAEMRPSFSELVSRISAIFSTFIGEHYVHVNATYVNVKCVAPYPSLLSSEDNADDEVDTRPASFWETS
The test system of assay [11] is Hepatocyte growth factor receptor (Homo sapiens), P08581 [M1250T]. The assay is described as §1.
Chain of Hepatocyte growth factor receptor (Homo sapiens), P08581 [M1250T] (P08581 whole entry M1250T): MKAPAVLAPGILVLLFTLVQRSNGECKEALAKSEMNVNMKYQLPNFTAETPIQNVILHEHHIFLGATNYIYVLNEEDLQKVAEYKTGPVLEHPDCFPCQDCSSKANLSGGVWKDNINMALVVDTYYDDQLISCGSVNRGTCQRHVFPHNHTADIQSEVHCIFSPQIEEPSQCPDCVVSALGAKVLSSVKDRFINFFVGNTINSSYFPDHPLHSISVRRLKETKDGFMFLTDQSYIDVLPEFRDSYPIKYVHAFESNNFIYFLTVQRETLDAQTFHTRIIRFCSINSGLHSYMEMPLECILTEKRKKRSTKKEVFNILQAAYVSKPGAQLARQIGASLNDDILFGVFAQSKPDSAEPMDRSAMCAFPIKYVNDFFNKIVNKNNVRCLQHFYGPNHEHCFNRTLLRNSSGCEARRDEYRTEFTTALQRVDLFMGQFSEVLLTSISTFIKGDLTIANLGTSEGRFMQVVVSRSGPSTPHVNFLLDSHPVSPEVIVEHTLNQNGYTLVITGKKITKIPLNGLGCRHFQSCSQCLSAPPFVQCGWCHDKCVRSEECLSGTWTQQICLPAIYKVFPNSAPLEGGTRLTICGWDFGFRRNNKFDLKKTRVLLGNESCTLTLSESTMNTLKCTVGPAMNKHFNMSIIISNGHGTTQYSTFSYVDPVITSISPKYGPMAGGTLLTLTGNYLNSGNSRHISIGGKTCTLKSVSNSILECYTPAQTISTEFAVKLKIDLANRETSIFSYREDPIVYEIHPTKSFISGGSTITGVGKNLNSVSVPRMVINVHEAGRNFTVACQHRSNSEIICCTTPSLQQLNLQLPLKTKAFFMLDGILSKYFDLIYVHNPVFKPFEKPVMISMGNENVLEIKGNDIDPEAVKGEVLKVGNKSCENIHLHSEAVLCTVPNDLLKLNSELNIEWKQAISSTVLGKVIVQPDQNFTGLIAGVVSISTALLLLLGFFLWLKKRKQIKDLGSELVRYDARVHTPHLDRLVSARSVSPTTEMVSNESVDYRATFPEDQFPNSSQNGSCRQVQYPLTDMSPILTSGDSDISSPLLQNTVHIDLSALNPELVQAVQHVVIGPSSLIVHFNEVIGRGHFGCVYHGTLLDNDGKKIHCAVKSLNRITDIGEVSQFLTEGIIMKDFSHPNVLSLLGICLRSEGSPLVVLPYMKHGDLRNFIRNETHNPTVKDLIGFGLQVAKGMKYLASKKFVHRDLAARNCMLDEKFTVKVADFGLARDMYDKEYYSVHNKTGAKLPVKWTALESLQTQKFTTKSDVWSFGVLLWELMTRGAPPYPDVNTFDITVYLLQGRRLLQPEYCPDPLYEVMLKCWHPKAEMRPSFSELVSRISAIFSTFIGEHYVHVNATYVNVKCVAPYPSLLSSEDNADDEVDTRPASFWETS
Assay [12] concerns the target T4, Mitogen-activated protein kinase 15 (Homo sapiens) (UniProt Q8TD08).
T4 sequence (whole entry): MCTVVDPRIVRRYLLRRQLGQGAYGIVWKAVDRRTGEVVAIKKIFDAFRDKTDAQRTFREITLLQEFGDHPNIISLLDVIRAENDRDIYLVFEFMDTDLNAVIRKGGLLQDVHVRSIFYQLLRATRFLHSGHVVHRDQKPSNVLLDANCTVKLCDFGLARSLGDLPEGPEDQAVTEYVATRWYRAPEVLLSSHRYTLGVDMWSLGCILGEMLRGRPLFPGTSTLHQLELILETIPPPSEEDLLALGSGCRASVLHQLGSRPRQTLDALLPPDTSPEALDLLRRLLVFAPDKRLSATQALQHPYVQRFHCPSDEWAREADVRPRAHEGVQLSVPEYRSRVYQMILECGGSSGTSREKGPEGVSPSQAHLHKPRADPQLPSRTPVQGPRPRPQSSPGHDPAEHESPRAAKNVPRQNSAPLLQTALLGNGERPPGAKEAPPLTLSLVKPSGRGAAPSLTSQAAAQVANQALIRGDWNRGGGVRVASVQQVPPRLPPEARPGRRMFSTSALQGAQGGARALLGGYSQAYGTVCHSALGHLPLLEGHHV
As to the kind of experiment: Selectivity interaction (KinomeScan (DiscoverX)) EUB0000618a MAPK15. The conditions noted are these: at 10 µM.

The target of assay [13] is Tyrosine-protein kinase FRK (Homo sapiens) (UniProt P42685). As to the kind of experiment: Selectivity interaction (Upstate Kinase Profiler service (Millipore)) EUB0000056c FRK. The conditions noted are these: at 1 µM.
Chain of Tyrosine-protein kinase FRK (Homo sapiens) (P42685 whole entry): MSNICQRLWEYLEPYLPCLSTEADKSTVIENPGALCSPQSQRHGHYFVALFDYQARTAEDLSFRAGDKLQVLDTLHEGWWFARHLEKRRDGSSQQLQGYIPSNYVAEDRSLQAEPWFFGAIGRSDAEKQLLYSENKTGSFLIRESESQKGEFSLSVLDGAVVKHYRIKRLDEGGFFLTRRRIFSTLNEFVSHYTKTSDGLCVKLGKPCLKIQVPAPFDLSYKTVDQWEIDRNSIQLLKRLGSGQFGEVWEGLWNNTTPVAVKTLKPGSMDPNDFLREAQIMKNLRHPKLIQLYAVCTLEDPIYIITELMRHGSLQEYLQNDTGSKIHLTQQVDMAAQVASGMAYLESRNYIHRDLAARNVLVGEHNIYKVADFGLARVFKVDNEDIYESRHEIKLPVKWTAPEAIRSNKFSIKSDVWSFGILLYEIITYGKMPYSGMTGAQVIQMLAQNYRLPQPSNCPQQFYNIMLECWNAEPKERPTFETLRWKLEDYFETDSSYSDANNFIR

Chain of Beta-2 adrenergic receptor (P07550 whole entry, looked up): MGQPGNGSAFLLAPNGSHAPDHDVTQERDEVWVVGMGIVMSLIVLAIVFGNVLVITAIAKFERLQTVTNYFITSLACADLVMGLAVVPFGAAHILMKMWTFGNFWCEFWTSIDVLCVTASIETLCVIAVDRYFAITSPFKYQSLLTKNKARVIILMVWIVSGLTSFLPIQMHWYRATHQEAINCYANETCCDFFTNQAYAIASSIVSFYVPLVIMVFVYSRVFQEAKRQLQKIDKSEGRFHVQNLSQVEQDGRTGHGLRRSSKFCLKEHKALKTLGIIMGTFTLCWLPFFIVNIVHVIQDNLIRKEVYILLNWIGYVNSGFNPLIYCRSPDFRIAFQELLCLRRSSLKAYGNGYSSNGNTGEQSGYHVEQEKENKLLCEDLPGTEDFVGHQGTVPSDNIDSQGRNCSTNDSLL
Chain of TGF-beta receptor type-2 (Homo sapiens) (P37173 whole entry): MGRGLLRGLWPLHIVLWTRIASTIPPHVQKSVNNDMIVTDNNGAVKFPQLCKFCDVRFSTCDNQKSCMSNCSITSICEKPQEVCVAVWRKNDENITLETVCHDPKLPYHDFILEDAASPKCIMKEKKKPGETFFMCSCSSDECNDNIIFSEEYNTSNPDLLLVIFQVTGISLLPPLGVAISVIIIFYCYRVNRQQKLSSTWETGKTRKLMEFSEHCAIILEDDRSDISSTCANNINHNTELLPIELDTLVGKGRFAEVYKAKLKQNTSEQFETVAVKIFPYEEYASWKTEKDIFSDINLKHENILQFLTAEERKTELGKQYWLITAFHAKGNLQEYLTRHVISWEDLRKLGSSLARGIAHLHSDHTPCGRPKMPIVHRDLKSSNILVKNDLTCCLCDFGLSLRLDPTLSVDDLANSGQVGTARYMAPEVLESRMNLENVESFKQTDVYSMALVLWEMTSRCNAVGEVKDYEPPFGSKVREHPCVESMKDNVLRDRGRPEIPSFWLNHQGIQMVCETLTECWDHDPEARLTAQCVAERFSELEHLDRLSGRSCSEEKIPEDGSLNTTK

Take `COc1cc(N(C)c2ccnc3ccc(C(F)(F)F)cc23)cc(OC)c1OC`: the % binding was 75% in assay [1] and 81% in assay [2].

The molecule `CCn1c(-c2nc3cc(C(=O)N4CCCC(N)C4)ccc3n2C)cc2ccccc21` (stereo not given) showed a pXC50 in [3] of less than 4.5 M.

On to `CC[C@@H]1[C@H](F)C(=O)N[C@@H]1COc1nccc2cc(C(N)=O)c(OC)cc12` [ZIMLOVISERTIB], for which the % of inhibition in assay [4] is -1.9%.

The molecule `CCN(CC)CCCCNc1ncc2cc(-c3cc(OC)cc(OC)c3)c(NC(=O)NC(C)(C)C)nc2n1` gave a % of control in [5] of 100%.

`CC(=O)Nc1cccc(-n2c(=O)n(C3CC3)c(=O)c3c(Nc4ccc(I)cc4F)n(C)c(=O)c(C)c32)c1`: the % of control in assay [6] turned out to be 116%; in assay [7], 120%.

On to `COc1cc(Nc2nc(C)cc(-c3cnn4nc(OC)ccc34)n2)cc(C(F)(F)F)c1`, for which the % of control worked out at 95% in [8] and 100% in [9].

In the case of `C=CC(=O)Nc1cc(-n2c(=O)ccc3cnc4ccc(-c5ccc(NS(C)(=O)=O)cc5)cc4c32)ccc1C`, the % of control is 95% in assay [10] (at 1 µM), 100% in assay [10] (at 10 µM), 80% in assay [11] (at 1 µM) and 90% in [11] (at 10 µM).

Molecule `O[C@H]1CC[C@H](Nc2ncc3nc(Nc4c(F)cc(F)cc4F)n([C@H]4CCOC4)c3n2)CC1` returned a % of control in [12] of 100%.

Regarding `Cc1ccc(-c2ccc3c(ccc4sc5c(c43)NC[C@@H](C)NC5=O)n2)cn1`, the % of inhibition in assay [13] came to 32%.
